According to publication PMC5373622, “Screening for AMPA receptor auxiliary subunit specific modulators” (PLoS ONE, 2017):
Values joined by “and” are separate entries in the source; they are usually repeats but may differ in a detail not shown here. Equal values may be shown once. Read-outs that look alike come from different tables or passages of the source.

Columns and labels:
[1] = test system: GluA1-stargazin; design: method as in PMID 16785437; conditions: published value; cited from earlier work
[2] = biological target: GluA2flip(Q)-CNIH3 (A2Q-C3 cells) (Homo sapiens, UniProt P42262); assay: Calcium flux (Fluo-8) compound CRC assay on A2Q-C3 cells
GluA2flip(Q)-CNIH3 (A2Q-C3 cells), sequence (P42262 25-883 isoform P42262-2 limits assumed): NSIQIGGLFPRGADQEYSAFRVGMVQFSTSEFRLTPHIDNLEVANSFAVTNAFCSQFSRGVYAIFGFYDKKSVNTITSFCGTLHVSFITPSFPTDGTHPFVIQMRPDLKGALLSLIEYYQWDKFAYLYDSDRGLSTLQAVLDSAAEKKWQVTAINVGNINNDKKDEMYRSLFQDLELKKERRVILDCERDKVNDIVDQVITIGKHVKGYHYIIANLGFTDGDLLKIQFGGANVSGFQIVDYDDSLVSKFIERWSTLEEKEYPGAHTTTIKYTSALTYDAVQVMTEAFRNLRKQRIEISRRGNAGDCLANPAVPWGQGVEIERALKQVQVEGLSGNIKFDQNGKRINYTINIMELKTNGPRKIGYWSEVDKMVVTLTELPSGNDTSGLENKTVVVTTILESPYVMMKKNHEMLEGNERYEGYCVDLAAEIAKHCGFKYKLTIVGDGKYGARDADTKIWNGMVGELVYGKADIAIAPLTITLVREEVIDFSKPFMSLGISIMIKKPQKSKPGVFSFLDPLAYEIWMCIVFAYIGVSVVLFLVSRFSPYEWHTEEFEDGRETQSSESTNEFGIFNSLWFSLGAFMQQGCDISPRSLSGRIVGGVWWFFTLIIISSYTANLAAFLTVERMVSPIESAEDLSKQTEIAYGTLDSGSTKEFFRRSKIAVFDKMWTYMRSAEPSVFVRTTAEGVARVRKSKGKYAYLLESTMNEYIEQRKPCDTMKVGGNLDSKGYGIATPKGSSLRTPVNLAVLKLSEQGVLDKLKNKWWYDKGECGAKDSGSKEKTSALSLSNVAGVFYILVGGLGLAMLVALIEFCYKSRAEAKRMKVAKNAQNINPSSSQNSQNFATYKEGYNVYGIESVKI
GluA2flip(Q)-CNIH3 (A2Q-C3 cells), sequence (Q8TBE1 whole entry partner): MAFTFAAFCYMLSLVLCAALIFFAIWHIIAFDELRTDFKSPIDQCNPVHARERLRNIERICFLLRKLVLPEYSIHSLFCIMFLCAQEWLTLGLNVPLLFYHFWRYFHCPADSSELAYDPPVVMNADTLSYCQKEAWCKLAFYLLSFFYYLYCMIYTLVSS
From the text: (§1) Cell lines used in the calcium flux assay were GluA2flip(Q)-FLAG + GSG1L-1D4 pTREt-Va dual expression in TetON HEK cell clone #20 (A2Q-GSG), GluA2flip(Q)-FLAG + CNIH3-1D4 pTREt-Va dual expression in TetON HEK cell clone #8 (A2Q-C3), GluA2flip(Q)-FLAG pTREt-Va in TetON HEK cell clone #5 (A2Q), and tethered GluA2flip(Q)-FLAG-stargazin [28] in pTREt-Va dual expression in TetON HEK cell clone #13 (A2Q-stg) (Summarized in Table 1).
(§2) Compounds that were selected as hits using the VSD assay were subsequently screened against the calcium permeable A2Q-stg and A2Q-C3 cell lines in a glutamate potency fold-shift assay using the calcium sensing dye Fluo-8 (AAT Bioquest cat #21080). This assay is used to measure how pretreatment with compounds shifts the EC50 of glutamate on A2Q-stg and A2Q-C3 cells. 30 μM of each compound was pre-incubated with the cells for 120 secs and then an 11-point glutamate CRC from 4 mM to 10 pM was applied to the cells for 180 sec. […] Greiner 384-pp round-bottom plates containing glutamate solutions were dispensed by hand using a multi-channel pipet at 5X final concentration. […] Sodium butyrate and DOX were added to the cells at 1 mM and 5 μg/mL, respectively, 24 hours before screening. A2Q-stg cells were induced with 10 μg/mL DOX. Cells were incubated O/N and washed 4 times in low calcium buffer on an ELX405CW liquid aspirator and dispenser (BioTek). Buffer was left in the wells and an equal amount of 4.6 μM (2X) Fluo-8 (AAT Bioquest cat #21080) solution with 2.5 mM probenecid was added and incubated on the cells at room temperature for 40 minutes. Probenecid was added to block dye efflux from the cells [29]. Dye was washed off with low calcium buffer using the ELX405CW (BioTek) and plates were immediately inserted into the FDSS (Hamamatsu). Fluorescence signal was collected at 1 Hz using Ex. 480±20 nm/Em. 540±40 nm. Baseline signal was collected for 10 seconds followed by addition of 20 μl of 2X compound for a final concentration of 30 μM. After 290 seconds, 10 μl of a 5X glutamate solution in high calcium buffer (10 mM HEPES, pH 7.4, 140 mM NaCl, 5 mM KCl, 1 mM MgCl2, 9 mM CaCl2, and 10 mM glucose) was added for 180 seconds.
(§3) These compound CRCs were applied to the cells 2 minutes before a 1mM glutamate stimulation. […] Normalized FDSS traces were curve fit to CRCs using the initial GLUslope (GLUslope1) in a 3–6 sec window after glutamate application. CRCs were also plotted for the traces’ area under the curve (AUC) in the GLUmaxmin window. […] Compounds were plotted as %max GLUslope against log [compound] and fit to a four-parameter logistical model as in the VSD.
(§4) Cells were loaded with Fluo-8 and excess dye was washed out. After 120 secs of pre-incubation with compound at concentrations ranging from 30 μM to 30 nM (Fig 4Bi), 1 mM glutamate was added (Fig 4Bii). In the calcium assay, 250 μM was used as the maxGLU dose because the GLUslope1 values decreased at higher concentrations of glutamate, making it the dose with the maximal GLUslope1 response. […] We measured GLUslope in three consecutive time windows, referred to as GLUslope1-3, because three phases were clearly detectable (Fig 4C). The final CRC curves were calculated from GLUslope1, obtained from the first 3–6 sec window.
(§5) The final compound CRC curves were calculated from GLUslope1. […] The AUC measures the accumulation of calcium instead of gating and sometimes produced a CRC fit when GLUslope1 could not derive an EC50 value.

[3] = biological target: GluA2flip(R)-stargazin (A2R-stg TetON HEK293 cells) (Homo sapiens, UniProt P42262, Q607R); assay: Voltage-sensitive dye (VSD) assay (primary screen, counter-screen, CRC) on A2R-stg cells; conditions: for CMPDmaxmin: max-min 8-100 s, only compound present; for BaselineReturn: max 250-255 s minus min 0-5 s; for Glumaxmin: max-min normalized value 301-380 s; for Glumaxmin / GluSlope: compound and glutamate present; for GluSlope: slope 310-315 s
GluA2flip(R)-stargazin (A2R-stg TetON HEK293 cells), sequence (P42262 25-883 isoform P42262-2 Q607R limits assumed): as the sequence (P42262 25-883 isoform P42262-2 limits assumed) above, with Q583R counted along it
GluA2flip(R)-stargazin (A2R-stg TetON HEK293 cells), sequence (Q9Y698 whole entry partner): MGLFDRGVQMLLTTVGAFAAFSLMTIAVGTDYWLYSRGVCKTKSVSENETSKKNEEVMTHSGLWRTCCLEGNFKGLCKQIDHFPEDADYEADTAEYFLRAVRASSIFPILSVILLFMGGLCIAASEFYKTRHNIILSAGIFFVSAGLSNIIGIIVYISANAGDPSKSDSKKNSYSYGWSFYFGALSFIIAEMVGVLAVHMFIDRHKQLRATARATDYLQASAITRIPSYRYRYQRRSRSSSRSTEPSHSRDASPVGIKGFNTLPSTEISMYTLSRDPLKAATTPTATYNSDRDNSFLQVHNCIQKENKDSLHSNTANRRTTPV
Method: Cell lines used in the VSD assays were TetON HEK293 cells. […] We used GluA2flip(R) TetON HEK cell clone #4 that doxycycline (DOX) dependently expresses GluA2flip(R) (A2R). The A2R cells were used as the base cell line to derive cell lines that co-express auxiliary subunits.
(§6) Greiner 384-pp round-bottom plates containing glutamate for the second add were dispensed by hand using a multi-channel pipet at 5X final concentration. A2R-stg cells were plated in 384-well BD PureCoat amine-coated plates (Corning Life Sciences) at 16k cells/well in DMEM medium supplemented with 10% heat-inactivated FBS and 100U/mL PenStrep antibiotic. […] Cells were incubated overnight (O/N) and washed 4 times in HBSS containing 20 mM HEPES, pH 7.4, on an ELX405CW liquid aspirator and dispenser (BioTek). Buffer was left in the wells and an equal amount of 2X FLIPR dye solution was added and incubated on the cells at room temperature for 45 min. Fluorescence signal was collected at 1 Hz using Ex. 480±20 nm/Em. 540±40 nm on a Hamamatsu Functional Drug Screening System 6000 (FDSS). Baseline signal was collected for 10 seconds followed by addition of 10 μl of 5X compound for a final concentration of 10 μM.
Hits were selected from this initial screen using 4 different criteria, which we termed CMPDslope, CMPDmaxmin, GLUslope, and GLUmaxmin. […] GLUslope is the fitted slope of the increase in fluorescence within 10 sec after adding glutamate. GLUmaxmin is the difference in the minimum and maximum value in fluorescence signal reached in the 100 sec window after adding glutamate. Compounds were classified as hits if they differed by 3 standard deviations of the mean for each criterion. Tier 1 hits were classified as those that hit in the GLUslope, GLUmaxmin, and CMPDmaxmin windows. Tier 2 hits were classified as compounds that hit in the GLUslope window and either the GLUmaxmin or CMPDmaxmin window. Tier 3 hits were classified as those that hit in only the GLUslope or the GLUmaxmin window. Tier 4 hits were classified as compounds that hit only in the CMPD window, CMPDslope or CMPDmaxmin. Hit selection was further narrowed using the criterion that their signal must return to near baseline values before entering the glutamate add window.
VSD concentration response curves (CRCs): After the above counter-screens, compounds that remained positive were moved forward to collect complete CRCs for A2R-stg and A2R-C3 cell lines. This assay was carried out in the same way as the VSD screening assay except a 10-point concentration curve, from 40 μM to 10 nM, was plated in triplicate for each compound on a single 384-well plate. Data were summarized by plotting them as %max GLUslope against log [compound] that was fit to a four-parameter logistical model. %max GLUslope is defined as a normalized GLUslope expressed as a percentage of the mean maximum GLUslope, defined as 100, where background mean vehicle control (VHLslope) were subtracted from both values on a per plate basis. Thus, %max GLU slope = (GLUslope-mean VHLslope/mean maxGLUslope-mean VHLslope).

[4] = biological target: GluA2flip(R)-CNIH3 (A2R-C3 TetON HEK293 cells) (Homo sapiens, UniProt P42262, Q607R); assay: VSD assay (counter-screen, CRC) on A2R-C3 cells; conditions: for CMPDmaxmin: max-min 8-100 s; for BaselineReturn: max 250-255 s minus min 0-5 s; for Glumaxmin: max-min normalized value 301-380 s
GluA2flip(R)-CNIH3 (A2R-C3 TetON HEK293 cells), sequence (P42262 25-883 isoform P42262-2 Q607R limits assumed): as the sequence (P42262 25-883 isoform P42262-2 limits assumed) above, with Q583R counted along it
GluA2flip(R)-CNIH3 (A2R-C3 TetON HEK293 cells), sequence (Q8TBE1 whole entry partner): as the sequence (Q8TBE1 whole entry partner) above
From the text: Cell lines used in the VSD assays were TetON HEK293 cells. This was the parental cell line for all stable cell lines created. We used GluA2flip(R) TetON HEK cell clone #4 that doxycycline (DOX) dependently expresses GluA2flip(R) (A2R). The A2R cells were used as the base cell line to derive cell lines that co-express auxiliary subunits.
as §6
This assay was carried out in the same way as the VSD screening assay except a 10-point concentration curve, from 40 μM to 10 nM, was plated in triplicate for each compound on a single 384-well plate. Data were summarized by plotting them as %max GLUslope against log [compound] that was fit to a four-parameter logistical model. %max GLUslope is defined as a normalized GLUslope expressed as a percentage of the mean maximum GLUslope, defined as 100, where background mean vehicle control (VHLslope) were subtracted from both values on a per plate basis. Thus, %max GLU slope = (GLUslope-mean VHLslope/mean maxGLUslope-mean VHLslope).

[5] = biological target: GluA2flip(Q)-GSG1L (A2Q-GSG cells) (Homo sapiens, UniProt P42262); assay: Calcium flux (Fluo-8) compound CRC assay on A2Q-GSG cells
GluA2flip(Q)-GSG1L (A2Q-GSG cells), sequence (P42262 25-883 isoform P42262-2 limits assumed): as the sequence (P42262 25-883 isoform P42262-2 limits assumed) above
GluA2flip(Q)-GSG1L (A2Q-GSG cells), sequence (Q6UXU4 whole entry partner): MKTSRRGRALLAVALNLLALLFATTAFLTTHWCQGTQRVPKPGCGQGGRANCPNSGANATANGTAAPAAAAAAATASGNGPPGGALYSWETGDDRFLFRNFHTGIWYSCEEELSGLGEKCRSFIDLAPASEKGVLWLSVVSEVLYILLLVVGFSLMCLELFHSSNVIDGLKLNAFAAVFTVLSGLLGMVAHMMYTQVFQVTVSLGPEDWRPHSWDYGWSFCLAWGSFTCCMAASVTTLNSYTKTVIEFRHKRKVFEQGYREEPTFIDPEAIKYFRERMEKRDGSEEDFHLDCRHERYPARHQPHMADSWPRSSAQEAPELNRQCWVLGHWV
From the text: as §1, §2, §3, §4, §5

[6] = test system: GluA2 alone; conditions: published value; cited from earlier work
[7] = biological target: T1, GluA2flip(Q) (A2Q cells) (Homo sapiens, UniProt P42262); assay: Calcium flux (Fluo-8) compound CRC assay on A2Q cells; type: cell-based; conditions: CRC from GLUslope1; 1 mM glutamate; PAM; read-out: EC50 Ca2+ Sensing, A2Q
T1 construct: FLAG (C); expressed in transfected cells
T1 sequence (P42262 25-883 isoform P42262-2 limits assumed): as the sequence (P42262 25-883 isoform P42262-2 limits assumed) above

NS(=O)(=O)c1cc2c(cc1Cl)NC(C1CC3C=CC1C3)NS2(=O)=O (stereo not shown) [CTZ, cyclothiazide]
EC50 [1]: 2000 nM
EC50 [2]: 400 nM
EC50 [3]: 900 nM
CMPDmaxmin ([3]; 1.95313e-6 M): 0.01995 and 0.02197 and 0.02343 and 0.0204 and 0.02099
BaselineReturn ([3]; 3.90625e-6 M): 0.01694 and 0.02593 and 0.02261 and 0.02289 and 0.01533 and 0.01439
CMPDmaxmin ([3]; 3.90625e-6 M): 0.02654 and 0.02518 and 0.0211 and 0.01857
BaselineReturn ([3]; 7.8125e-6 M): 0.02783 and 0.02662 and 0.0353 and 0.03259 and 0.02886 and 0.02588
CMPDmaxmin ([3]; 7.8125e-6 M): 0.0268 and 0.03115 and 0.03117 and 0.04146 and 0.02344 and 0.0309
Glumaxmin ([3]; 7.8125e-6 M): 0.1527 and 0.1804 and 0.2045 and 0.2207
GluSlope ([3]; 7.8125e-6 M): 1.356e-5 and 1.3e-5 and 1.265e-5 and 1.674e-5 and 1.689e-5 and 1.461e-5
CMPDmaxmin ([3]; 1.5625e-5 M): 0.03354 and 0.03952 and 0.05587 and 0.04086 and 0.03876 and 0.03573
Glumaxmin ([3]; 1.5625e-5 M): 0.2558 and 0.3432 and 0.3162 and 0.3337
GluSlope ([3]; 1.5625e-5 M): 1.634e-5 and 1.622e-5 and 1.53e-5 and 2.233e-5 and 2.059e-5 and 2.204e-5
BaselineReturn ([3]; 3.125e-5 M): 0.0693 and 0.04071 and 0.04552 and 0.04058 and 0.03606 and 0.0477
CMPDmaxmin ([3]; 3.125e-5 M): 0.05834 and 0.04067 and 0.04238 and 0.04539 and 0.03379 and 0.04106
Glumaxmin ([3]; 3.125e-5 M): 0.4026 and 0.4044 and 0.3672 and 0.4286 and 0.4072
CMPDmaxmin ([3]; 6.25e-5 M): 0.04424 and 0.05275 and 0.04401 and 0.03573 and 0.03351 and 0.03343
Glumaxmin ([3]; 6.25e-5 M): 0.4053 and 0.4064 and 0.4608 and 0.469 and 0.4686 and 0.4908
GluSlope ([3]; 6.25e-5 M): 1.974e-5 and 2.267e-5 and 2.556e-5 and 2.473e-5 and 2.4778e-5 and 2.559e-5
CMPDmaxmin ([3]; 0.00025 M): 0.0338 and 0.0291 and 0.02948 and 0.02774 and 0.02398 and 0.02262
Glumaxmin ([3]; 0.00025 M): 0.4981 and 0.5117 and 0.5708 and 0.5208 and 0.5482 and 0.5112
GluSlope ([3]; 0.00025 M): 2.302e-5 and 2.432e-5 and 2.511e-5 and 2.509e-5 and 2.863e-5 and 2.554e-5
CMPDmaxmin ([3]; 0.0005 M): 0.04815 and 0.05143 and 0.02949 and 0.04218 and 0.05076 and 0.0521
Glumaxmin ([3]; 0.0005 M): 0.4797 and 0.5039 and 0.3566 and 0.5216 and 0.4987 and 0.5435
GluSlope ([3]; 0.0005 M): 2.0723e-5 and 2.479e-5 and 1.376e-5 and 2.232e-5 and 2.492e-5 and 2.656e-5
activity at 250 µM ([3]; HEK293, read-out: AVE %MAXCMPDslope, 0.00025 M, average of wells): 28.2%
activity at 500 µM ([3]; HEK293, read-out: AVE %MAXCMPDslope, 0.0005 M, average of wells): 27.5%
activity at […] ([3]; HEK293, read-out: AVE %MAXCMPDslope, […], average of wells): 29%
activity at 250 µM ([3]; HEK293, read-out: AVE %MAXslope, 0.00025 M, average of wells): 71.3%
activity at 500 µM ([3]; HEK293, read-out: AVE %MAXslope, 0.0005 M, average of wells): 65.9%
activity at […] ([3]; HEK293, read-out: AVE %MAXslope, […], average of wells): 68.4%
activity at 250 µM ([3]; HEK293, read-out: pctMAX, 0.00025 M, Glumaxmin as percentage MAX (vhl and glutamate controls)): 55.4%
activity at […] ([3]; HEK293, read-out: pctMAX, […], Glumaxmin as percentage MAX (vhl and glutamate controls)): 44.5%
activity at 250 µM ([3]; HEK293, read-out: pctMAXslope, 0.00025 M, GluSlope as percentage MAX): 67.4%
activity at […] ([3]; HEK293, read-out: pctMAXslope, […], GluSlope as percentage MAX): 64.2%
activity at 250 µM ([3]; HEK293, read-out: pctMAXslopeCMPD, 0.00025 M, CMPDSlope as percentage MAX): 27.7%
activity at 500 µM ([3]; HEK293, read-out: pctMAXslopeCMPD, 0.0005 M, CMPDSlope as percentage MAX): 26.2%
activity at […] ([3]; HEK293, read-out: pctMAXslopeCMPD, […], CMPDSlope as percentage MAX): 28.9%
EC50 [4]: 800 nM
CMPDmaxmin ([4]; 1.95313e-6 M ligand, compound only, per well): 0.02498 and 0.01841 and 0.01791 and 0.02774
CMPDmaxmin ([4]; 3.90625e-6 M ligand, compound only, per well): 0.02327 and 0.02311 and 0.02554 and 0.02077
GluSlope ([4]; 3.90625e-6 M ligand, slope of normalized value 310-315 s, compound+glutamate, per well): 3.655e-6 and 4.544e-6 and 4.211e-6 and 5.143e-6 and 7.279e-6 and 5.643e-6
BaselineReturn ([4]; 7.8125e-6 M ligand, per well): 0.02655 and 0.02476
CMPDmaxmin ([4]; 7.8125e-6 M ligand, compound only, per well): 0.03133 and 0.03273
Glumaxmin ([4]; 7.8125e-6 M ligand, compound+glutamate, per well): 0.1051 and 0.1531
GluSlope ([4]; 7.8125e-6 M ligand, slope of normalized value 310-315 s, compound+glutamate, per well): 1.084e-5 and 1.388e-5
BaselineReturn ([4]; 7.8125e-6 M, per well): 0.01945 and 0.0284 and 0.03375 and 0.02763
CMPDmaxmin ([4]; 7.8125e-6 M, only compound present, per well): 0.02499 and 0.03299 and 0.03909 and 0.04405
Glumaxmin ([4]; 7.8125e-6 M, compound and glutamate present, per well): 0.1519 and 0.1861 and 0.161 and 0.1533
GluSlope ([4]; 7.8125e-6 M, slope 310-315 s, compound and glutamate present, per well): 1.427e-5 and 1.51e-5 and 1.46e-5 and 1.177e-5
BaselineReturn ([4]; 1.5625e-5 M, per well): 0.04439 and 0.04696 and 0.04628 and 0.04829 and 0.04336 and 0.0478
CMPDmaxmin ([4]; 1.5625e-5 M, only compound present, per well): 0.04028 and 0.05159 and 0.051 and 0.04736 and 0.04942 and 0.04289
Glumaxmin ([4]; 1.5625e-5 M, compound and glutamate present, per well): 0.222 and 0.2669 and 0.2275
GluSlope ([4]; 1.5625e-5 M, slope 310-315 s, compound and glutamate present, per well): 1.982e-5 and 1.758e-5 and 1.735e-5 and 2.35e-5 and 2.196e-5 and 2.323e-5
Glumaxmin ([4]; 3.125e-5 M, compound and glutamate present, per well): 0.3443 and 0.3512 and 0.3188 and 0.318 and 0.3671
GluSlope ([4]; 3.125e-5 M, slope 310-315 s, compound and glutamate present, per well): 2.5659e-5 and 2.5089e-5 and 2.398e-5 and 2.252e-5 and 2.824e-5 and 2.481e-5
BaselineReturn ([4]; 6.25e-5 M, per well): 0.06773 and 0.07885 and 0.0633 and 0.06912 and 0.08153 and 0.08744
CMPDmaxmin ([4]; 6.25e-5 M, only compound present, per well): 0.07201 and 0.07489 and 0.07237 and 0.06864 and 0.0824 and 0.08958
Glumaxmin ([4]; 6.25e-5 M, compound and glutamate present, per well): 0.3694 and 0.3861 and 0.381 and 0.3994 and 0.4282 and 0.4362
GluSlope ([4]; 6.25e-5 M, slope 310-315 s, compound and glutamate present, per well): 2.565e-5 and 2.689e-5 and 2.837e-5 and 2.784e-5 and 3.091e-5 and 2.855e-5
CMPDmaxmin ([4]; 0.00025 M, only compound present, per well): 0.06294 and 0.04965 and 0.05528 and 0.07959 and 0.04247 and 0.05305
Glumaxmin ([4]; 0.0005 M, compound and glutamate present, per well): 0.4488 and 0.457 and 0.483 and 0.5352 and 0.5162 and 0.5252
GluSlope ([4]; 0.0005 M, slope 310-315 s, compound and glutamate present, per well): 2.6241e-5 and 2.3366e-5 and 3.012e-5 and 2.914e-5 and 2.692e-5 and 2.648e-5
activity at 250 µM ([4]; HEK293, read-out: AVE %MAXCMPDslope, 0.00025 M, average for the concentration): 20.3%
activity at 500 µM ([4]; HEK293, read-out: AVE %MAXCMPDslope, 0.0005 M, average for the concentration): 20.7%
activity at […] ([4]; HEK293, read-out: AVE %MAXCMPDslope, […], average for the concentration): 19.2%
activity at 250 µM ([4]; HEK293, read-out: AVE %MAXslope, 0.00025 M, average for the concentration): 68.1%
activity at […] ([4]; HEK293, read-out: AVE %MAXslope, […], average for the concentration): 63.8%
activity at 500 µM ([4]; HEK293, read-out: pctMAX, 0.0005 M, Glumaxmin vs vhl and glutamate controls, per well): 57.7%
activity at 500 µM ([4]; HEK293, read-out: pctMAXslope, 0.0005 M, GluSlope vs vhl and glutamate controls, per well): 67.5%
activity at 250 µM ([4]; HEK293, read-out: pctMAXslopeCMPD, 0.00025 M, CMPDSlope vs vhl and glutamate controls, per well): 18.6%
activity at 500 µM ([4]; HEK293, read-out: pctMAXslopeCMPD, 0.0005 M, CMPDSlope vs vhl and glutamate controls, per well): 18.6%
activity at […] ([4]; HEK293, read-out: pctMAXslopeCMPD, […], CMPDSlope vs vhl and glutamate controls, per well): 19.3%
EC50 [5]: 1600 nM
EC50 [6]: 2200 nM
EC50 [7]: 1900 nM
